{"source": "patent US20090131309A1", "about": "“ICA512 COUPLES INSULIN SECRETION AND GENE EXPRESSION IN BETA-CELLS” (Technische Universität Dresden Medizinizche Fakultät Carl …, priority 2004, published 2009)", "key": {"[1]": {"tested_on": "Insulin mRNA", "assay": "Insulin mRNA levels by real-time PCR in INS-1 cells", "format": "cell-based, rat", "conditions": "40 μM calpeptin; 2 hrs after 6 hrs stimulation and later; vs cells stimulated without calpeptin", "method": "Time-course stimulation of INS-1 cells. INS-1 ceils were incubated for 1 hr. in resting buffer (2.8 mM glucose and 5 mM KCl), then for 6 hrs. in resting or stimulating buffer, with or without 40 μM calpeptin, and then again in resting buffer for up to 24 hrs. Total RNA for real-time PCR was collected at time 0, 2 and 6 hrs. during stimulation and at 2, 6, 12 and 24 hrs. during the following resting period.\nReal-time PCR. Total RNA from INS-1 cells was isolated with Trizol (Invitrogen, Karlsruhe, Germany) according to the manufacturer's protocol. 1 μg of total RNA was used for the reverse transcriptase reaction, with 2 μM specific antisense primers for […] and insulin, as described (31). mRNA expression was measured by quantitative real-time PCR using the Brilliant SYBR Green QPCR (Stratagene, La Jolla, Calif.) with an Mx4000 Multiplex Quantitative Real Time PCR System (Stratagene)."}, "[2]": {"tested_on": "INS-1 cells", "assay": "Nuclear levels of ICA512-CCF-GFP in INS-1 cells (nuclear extracts, confocal imaging)", "format": "cell-based, rat", "conditions": "ICA512-GFP INS-1 cells; 60 μM calpeptin", "method": "Cell extracts and western blotting. Wild type and transfected INS-1 cells and rat pancreatic islets (350-450) were pre-incubated for 60 minutes in resting buffer containing 0 mM glucose and 5 mM KCl and then incubated for various times in fresh resting or stimulating buffer including 25 mM glucose and 55 mM KCl, as previously described (7). The protease inhibitors calpeptin, MG-132, L-685,458 (Calbiochem, La Jolla, Calif.) were added in the last 15 minutes of the pre-incubation, and then for the entire following period before cells were harvested. Next, the cells were washed with ice cold PBS, and extracted in lysis buffer (10 mM Tris-HCl at pH 8.0, 140 mM NaCl, 1% Triton X-100, 1 mM EDTA, 1 mM PMSF, and 1% protease inhibitor cocktail (Sigma, St. Louis, Mo.) at 4° C. Cytosolic and nuclear extracts were prepared using the NE-PER Nuclear and Cytoplasmic Extraction Reagents (Pierce, Rockford, Ill.) in accordance with the manufacturer's instructions. Protein concentration was measured using the Bio-Rad Protein Assay Reagent (Bio-Rad, Hercules, Calif.). Equivalent amount of protein was separated by 8-10% SDS-PAGE, except for nuclear extracts, in which case half of the protein were loaded compared to the corresponding cytosolic extracts. […] Quantitation of protein signals was performed with the Image Gauge v3.45 software (Fuji). […]"}}}
{"smiles": "CCCC[C@@H](C=O)NC(=O)[C@H](CC(C)C)NC(=O)OCc1ccccc1", "note": "[calpeptin]", "values": [{"measurement": "insulin mRNA reduction", "setting": "[1]", "value": "~40", "unit": "%"}, {"measurement": "enrichment of 55 kD ICA512-CCF-GFP in nuclear fractions of stimulated cells", "setting": "[2]", "value": "in a calpeptin-sensitive manner"}]}
